# Assay results from ChEMBL document CHEMBL5137054, “Xyloketal B Reverses Nutritional Hepatic Steatosis, Steatohepatitis, and Liver Fibrosis through Activation of the PPARα/PGC1α Signaling Pathway” (J Nat Prod, 2022).
# Active and inactive are the calls of the source. The calls are words filed in the database; no cut-off is given here.
# Assays:
# [1] = Toxicity in C57BL/6J mouse assessed as effect on serum cholesterol level at 40 mg/kg, ip; assay type: organism-based; settings: in vivo
# Mus musculus [2] = experiment: Reduction in hepatic steatosis in HFD-induced C57BL/6J mouse model of NAFL assessed as reduction in HFD-induced relative liver weight at 20 to 40 mg/kg/day, ip administered from week 7 to week 12; assay type: functional, organism-based; settings: dose 20-40 mg/kg/day, time 6.0 weeks
# Mus musculus [3] = experiment: Antifibrotic activity against MCD-induced C57BL/6J mouse model of liver fibrosis assessed as reduction in MMP2 level in liver administered intraperitoneally from week 3 to week 6 by immunoblotting analysis; assay type: functional, organism-based; settings: dose 20-40 mg/kg, route ip, time 4.0 weeks, DDE = dose-dependent effect
# Mus musculus [4] = experiment: Upregulation of peroxisomal bifunctional enzyme expression in liver of HFD-induced C57BL/6J mouse model of NAFL at 15 mg/kg/day, ip administered from week 7 to week 12 by immunoblotting analysis; assay type: functional, organism-based; settings: time 6.0 weeks
smiles,measurement,setting,value
C[C@H]1CO[C@]2(C)Oc3cc(O)c4c(c3C[C@H]12)O[C@@]1(C)OC[C@H](C)[C@H]1C4,Activity,[1],Non-Toxic
same,Activity,Mus musculus [2],Active
same,Activity,Mus musculus [3],Dde
same,Activity,Mus musculus [4],Active
